Measurements from paper PMC8037182, “Solvothermal Synthesis of Multiple Dihydropyrimidinones at a Time as Inhibitors of Eg5” (Molecules, 2021).

Experiments:
[1] = tested on: Caco-2 cell line; experiment: Cytotoxicity MTS assay, Caco-2 cell line; assay type: cell-based; conditions: for OD490 Mean / OD490 Well 1 / OD490 Well 2 / OD490 Well 3: Caco-2 cell line
Outline: (§1)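 IC50 reflects non-linear regression of percent cell viability on compound concentration, tested from 0.5 to 100 µM final during a 24 h exposure. Viability was read by MTS at 490 nm; monastrol served as positive control and 0.025% DMSO as blank.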

[2] = tested on: Hela cell line; experiment: Cytotoxicity MTS assay, Hela cell line; assay type: cell-based; conditions: for OD490 value, Mean / OD490 value, Well 1 / OD490 value, Well 2 / OD490 value, Well 3: Hela cell line, MTS;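 on OD490 value, Mean: blank control wells received 0.025% DMSO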;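 on OD490 value, Well 1: blank control wells received 0.025% DMSO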;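 on OD490 value, Well 2: blank control wells received 0.025% DMSO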;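 on OD490 value, Well 3: blank control wells received 0.025% DMSO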
Outline: as §1

With `CCOC(=O)c1c(C2NC(=O)NC(C)=C2C(=O)Nc2ccccc2)[nH]c(C(=O)OC)c1C` (centres unmarked) [D10] the “OD490 Mean” value ([1]; 0.5μM, first assay) was 0.4742, the “OD490 Well 1” value ([1]; 0.5μM, first assay) was 0.4527 and the “OD490 Well 2” value ([1]; 0.5μM, first assay) was 0.4966. The “OD490 Well 3” value ([1]; 0.5μM, first assay) was 0.4734, the “OD490 Mean” value ([1]; 0.5μM, second assay) was 0.5530 and the “OD490 Well 1” value ([1]; 0.5μM, second assay) was 0.531. For the same compound, the “OD490 Well 2” value ([1]; 0.5μM, second assay) was 0.6234, the “OD490 Well 3” value ([1]; 0.5μM, second assay) was 0.5045 and the “OD490 Mean” value ([1]; 0.5μM, third assay) was 0.6289. For the same compound, the “OD490 Well 1” value ([1]; 0.5μM, third assay) was 0.6132, the “OD490 Well 2” value ([1]; 0.5μM, third assay) was 0.6414 and the “OD490 Well 3” value ([1]; 0.5μM, third assay) was 0.6321. For the same compound, the “OD490 Mean” value ([1]; 1μM, first assay) was 0.5016, the “OD490 Well 1” value ([1]; 1μM, first assay) was 0.5182 and the “OD490 Well 2” value ([1]; 1μM, first assay) was 0.4910. For the same compound, the “OD490 Well 3” value ([1]; 1μM, first assay) was 0.4957, the “OD490 Mean” value ([1]; 1μM, second assay) was 0.6121 and the “OD490 Well 1” value ([1]; 1μM, second assay) was 0.5315. For the same compound, the “OD490 Well 2” value ([1]; 1μM, second assay) was 0.6788, the “OD490 Well 3” value ([1]; 1μM, second assay) was 0.626 and the “OD490 Mean” value ([1]; 1μM, third assay) was 0.6367. The “OD490 Well 1” value ([1]; 1μM, third assay) was 0.6031, the “OD490 Well 2” value ([1]; 1μM, third assay) was 0.6621 and the “OD490 Well 3” value ([1]; 1μM, third assay) was 0.6449. For the same compound, the “OD490 Mean” value ([1]; 10μM, first assay) was 0.4933, the “OD490 Well 1” value ([1]; 10μM, first assay) was 0.4499 and the “OD490 Well 2” value ([1]; 10μM, first assay) was 0.5248. The “OD490 Well 3” value ([1]; 10μM, first assay) was 0.5052, the “OD490 Mean” value ([1]; 10μM, second assay) was 0.5658 and the “OD490 Well 1” value ([1]; 10μM, second assay) was 0.6. For the same compound, the “OD490 Well 2” value ([1]; 10μM, second assay) was 0.624, the “OD490 Well 3” value ([1]; 10μM, second assay) was 0.4735 and the “OD490 Mean” value ([1]; 10μM, third assay) was 0.6081. For the same compound, the “OD490 Well 1” value ([1]; 10μM, third assay) was 0.6012, the “OD490 Well 2” value ([1]; 10μM, third assay) was 0.6321 and the “OD490 Well 3” value ([1]; 10μM, third assay) was 0.5911. For the same compound, the “OD490 Mean” value ([1]; 25μM, first assay) was 0.4730, the “OD490 Well 1” value ([1]; 25μM, first assay) was 0.3491 and the “OD490 Well 2” value ([1]; 25μM, first assay) was 0.5643. For the same compound, the “OD490 Well 3” value ([1]; 25μM, first assay) was 0.5057, the “OD490 Mean” value ([1]; 25μM, second assay) was 0.5406 and the “OD490 Well 1” value ([1]; 25μM, second assay) was 0.5132. The “OD490 Well 2” value ([1]; 25μM, second assay) was 0.5889, the “OD490 Well 3” value ([1]; 25μM, second assay) was 0.5197 and the “OD490 Mean” value ([1]; 25μM, third assay) was 0.5321. The “OD490 Well 1” value ([1]; 25μM, third assay) was 0.5365, the “OD490 Well 2” value ([1]; 25μM, third assay) was 0.4987 and the “OD490 Well 3” value ([1]; 25μM, third assay) was 0.5612. For the same compound, the “OD490 Mean” value ([1]; 50μM, first assay) was 0.4403, the “OD490 Well 1” value ([1]; 50μM, first assay) was 0.3579 and the “OD490 Well 2” value ([1]; 50μM, first assay) was 0.5436. The “OD490 Well 3” value ([1]; 50μM, first assay) was 0.4193, the “OD490 Mean” value ([1]; 50μM, second assay) was 0.4763 and the “OD490 Well 1” value ([1]; 50μM, second assay) was 0.4113. The “OD490 Well 2” value ([1]; 50μM, second assay) was 0.5208, the “OD490 Well 3” value ([1]; 50μM, second assay) was 0.4969 and the “OD490 Mean” value ([1]; 50μM, third assay) was 0.4757. For the same compound, the “OD490 Well 1” value ([1]; 50μM, third assay) was 0.4698, the “OD490 Well 2” value ([1]; 50μM, third assay) was 0.4875 and the “OD490 Well 3” value ([1]; 50μM, third assay) was 0.4698. For the same compound, the “OD490 Mean” value ([1]; 100μM, first assay) was 0.4342, the “OD490 Well 1” value ([1]; 100μM, first assay) was 0.3369 and the “OD490 Well 2” value ([1]; 100μM, first assay) was 0.4685. For the same compound, the “OD490 Well 3” value ([1]; 100μM, first assay) was 0.4971, the “OD490 Mean” value ([1]; 100μM, second assay) was 0.4596 and the “OD490 Well 1” value ([1]; 100μM, second assay) was 0.4737. For the same compound, the “OD490 Well 2” value ([1]; 100μM, second assay) was 0.4587, the “OD490 Well 3” value ([1]; 100μM, second assay) was 0.4463 and the “OD490 Mean” value ([1]; 100μM, third assay) was 0.4349. The “OD490 Well 1” value ([1]; 100μM, third assay) was 0.4356, the “OD490 Well 2” value ([1]; 100μM, third assay) was 0.4169 and the “OD490 Well 3” value ([1]; 100μM, third assay) was 0.4521. The IC50 ([1]; MTS assay, 24 h exposure) was 108 µM, the “OD490 value, Mean” value ([2]; 0.5μM, first assay) was 2.4433 and the “OD490 value, Well 1” value ([2]; 0.5μM, first assay) was 2.2781. For the same compound, the “OD490 value, Well 2” value ([2]; 0.5μM, first assay) was 2.4004, the “OD490 value, Well 3” value ([2]; 0.5μM, first assay) was 2.6514 and the “OD490 value, Mean” value ([2]; 0.5μM, second assay) was 2.6180. For the same compound, the “OD490 value, Well 1” value ([2]; 0.5μM, second assay) was 2.6587, the “OD490 value, Well 2” value ([2]; 0.5μM, second assay) was 2.4789 and the “OD490 value, Well 3” value ([2]; 0.5μM, second assay) was 2.7165. For the same compound, the “OD490 value, Mean” value ([2]; 0.5μM, third assay) was 2.7318, the “OD490 value, Well 1” value ([2]; 0.5μM, third assay) was 2.6365 and the “OD490 value, Well 2” value ([2]; 0.5μM, third assay) was 2.6647. For the same compound, the “OD490 value, Well 3” value ([2]; 0.5μM, third assay) was 2.8942, the “OD490 value, Mean” value ([2]; 1μM, first assay) was 2.5456 and the “OD490 value, Well 1” value ([2]; 1μM, first assay) was 2.4058. For the same compound, the “OD490 value, Well 2” value ([2]; 1μM, first assay) was 2.5965, the “OD490 value, Well 3” value ([2]; 1μM, first assay) was 2.6345 and the “OD490 value, Mean” value ([2]; 1μM, second assay) was 2.6802. The “OD490 value, Well 1” value ([2]; 1μM, second assay) was 2.6241, the “OD490 value, Well 2” value ([2]; 1μM, second assay) was 2.8523 and the “OD490 value, Well 3” value ([2]; 1μM, second assay) was 2.5641. The “OD490 value, Mean” value ([2]; 1μM, third assay) was 2.6076, the “OD490 value, Well 1” value ([2]; 1μM, third assay) was 2.6360 and the “OD490 value, Well 2” value ([2]; 1μM, third assay) was 2.5412. For the same compound, the “OD490 value, Well 3” value ([2]; 1μM, third assay) was 2.6456, the “OD490 value, Mean” value ([2]; 10μM, first assay) was 2.4164 and the “OD490 value, Well 1” value ([2]; 10μM, first assay) was 2.2701. The “OD490 value, Well 2” value ([2]; 10μM, first assay) was 2.4384, the “OD490 value, Well 3” value ([2]; 10μM, first assay) was 2.5408 and the “OD490 value, Mean” value ([2]; 10μM, second assay) was 2.3656. For the same compound, the “OD490 value, Well 1” value ([2]; 10μM, second assay) was 2.3071, the “OD490 value, Well 2” value ([2]; 10μM, second assay) was 2.3385 and the “OD490 value, Well 3” value ([2]; 10μM, second assay) was 2.4512. For the same compound, the “OD490 value, Mean” value ([2]; 10μM, third assay) was 2.4636, the “OD490 value, Well 1” value ([2]; 10μM, third assay) was 2.3685 and the “OD490 value, Well 2” value ([2]; 10μM, third assay) was 2.4635. The “OD490 value, Well 3” value ([2]; 10μM, third assay) was 2.5587, the “OD490 value, Mean” value ([2]; 25μM, first assay) was 2.2246 and the “OD490 value, Well 1” value ([2]; 25μM, first assay) was 1.9325. For the same compound, the “OD490 value, Well 2” value ([2]; 25μM, first assay) was 2.3409, the “OD490 value, Well 3” value ([2]; 25μM, first assay) was 2.4004 and the “OD490 value, Mean” value ([2]; 25μM, second assay) was 2.1531. For the same compound, the “OD490 value, Well 1” value ([2]; 25μM, second assay) was 2.0147, the “OD490 value, Well 2” value ([2]; 25μM, second assay) was 2.2032 and the “OD490 value, Well 3” value ([2]; 25μM, second assay) was 2.2414. The “OD490 value, Mean” value ([2]; 25μM, third assay) was 2.1839, the “OD490 value, Well 1” value ([2]; 25μM, third assay) was 2.1010 and the “OD490 value, Well 2” value ([2]; 25μM, third assay) was 2.1141. For the same compound, the “OD490 value, Well 3” value ([2]; 25μM, third assay) was 2.3365, the “OD490 value, Mean” value ([2]; 50μM, first assay) was 1.8479 and the “OD490 value, Well 1” value ([2]; 50μM, first assay) was 1.6416. For the same compound, the “OD490 value, Well 2” value ([2]; 50μM, first assay) was 1.7737, the “OD490 value, Well 3” value ([2]; 50μM, first assay) was 2.1285 and the “OD490 value, Mean” value ([2]; 50μM, second assay) was 1.7649. The “OD490 value, Well 1” value ([2]; 50μM, second assay) was 1.7425, the “OD490 value, Well 2” value ([2]; 50μM, second assay) was 1.7321 and the “OD490 value, Well 3” value ([2]; 50μM, second assay) was 1.8201. The “OD490 value, Mean” value ([2]; 50μM, third assay) was 1.8099, the “OD490 value, Well 1” value ([2]; 50μM, third assay) was 1.7845 and the “OD490 value, Well 2” value ([2]; 50μM, third assay) was 1.8032. For the same compound, the “OD490 value, Well 3” value ([2]; 50μM, third assay) was 1.8420, the “OD490 value, Mean” value ([2]; 100μM, first assay) was 1.6845 and the “OD490 value, Well 1” value ([2]; 100μM, first assay) was 1.6759. For the same compound, the “OD490 value, Well 2” value ([2]; 100μM, first assay) was 1.7430, the “OD490 value, Well 3” value ([2]; 100μM, first assay) was 1.6346 and the “OD490 value, Mean” value ([2]; 100μM, second assay) was 1.6082. For the same compound, the “OD490 value, Well 1” value ([2]; 100μM, second assay) was 1.6324, the “OD490 value, Well 2” value ([2]; 100μM, second assay) was 1.5024 and the “OD490 value, Well 3” value ([2]; 100μM, second assay) was 1.6898. For the same compound, the “OD490 value, Mean” value ([2]; 100μM, third assay) was 1.7036, the “OD490 value, Well 1” value ([2]; 100μM, third assay) was 1.6578 and the “OD490 value, Well 2” value ([2]; 100μM, third assay) was 1.6988. For the same compound, the “OD490 value, Well 3” value ([2]; 100μM, third assay) was 1.7542 and the IC50 ([2]; MTS assay, 24 h exposure) was 108 µM.
